Measured values reported in the supplement of paper PMC11562712.

Experiment: first-order primary biodegradation rate constant k (sorption-corrected, fDis-corrected) (d-1); higher = faster biodegradation
Procedure, shortened: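 Each of 129 compounds was spiked at 1 μg L^–1 into river water containing sieved sediment (50 g wet solid L^–1) from German, Swiss, Spanish and Greek river segments, then shaken in darkness at 20.5 ± 3.5 °C, the river water temperature, for 10 days in three replicates. Filtered samples of the water phase were measured by ultra-high-performance liquid chromatography coupled to Orbitrap tandem mass spectrometry. First-order k values came from log peak-area regression, corrected for sorption-control dissipation under azide sterilisation and divided by dissolved fraction, and invalid fits were left out.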

[1] = river segment: Germany (DE) H_Contam, incubation temperature 24 °C
[2] = river segment: Germany (DE) T_Contam, incubation temperature 24 °C
[3] = river segment: Germany (DE) T_Pris, incubation temperature 24 °C
[4] = river segment: Greece (EL) A_Contam, incubation temperature 19 °C
[5] = river segment: Greece (EL) G_Pris, incubation temperature 19 °C
[6] = river segment: Greece (EL) L_Contam, incubation temperature 19 °C
[7] = river segment: Spain (ES) B_Contam, incubation temperature 24 °C
[8] = river segment: Spain (ES) C_Contam, incubation temperature 24 °C
[9] = river segment: Spain (ES) L_Contam, incubation temperature 24 °C
[10] = river segment: Switzerland (CH) R_Contam, incubation temperature 17 °C
[11] = river segment: Switzerland (CH) U_Contam, incubation temperature 17 °C
[12] = river segment: Switzerland (CH) U_Pris, incubation temperature 17 °C
[13] = river segment: Greece (EL) G_Contam, incubation temperature 19 °C
[14] = river segment: Spain (ES) F_Pris_Salt, incubation temperature 24 °C
[15] = river segment: Switzerland (CH) C_Contam, incubation temperature 17 °C

first-order primary biodegradation rate constant k [1] | first-order primary biodegradation rate constant k [2] | first-order primary biodegradation rate constant k [3] | first-order primary biodegradation rate constant k [4] | first-order primary biodegradation rate constant k [5] | first-order primary biodegradation rate constant k [6] | first-order primary biodegradation rate constant k [7] | first-order primary biodegradation rate constant k [8] | first-order primary biodegradation rate constant k [9] | first-order primary biodegradation rate constant k [10] | first-order primary biodegradation rate constant k [11] | first-order primary biodegradation rate constant k [12] | first-order primary biodegradation rate constant k [13] | first-order primary biodegradation rate constant k [14] | first-order primary biodegradation rate constant k [15] | Structure (SMILES)
0.16 | 0.425 | 0.199 | 0.519 |  | 0.513 | 0.0362 | 0.113 |  | 0.4 | 0.596 | 0.768 | 0.773 | 0.179 | 0.22 | C#CCN(C)Cc1ccccc1 [Pargyline]
0.0136 | 0.0182 |  |  |  |  |  |  |  |  |  |  |  |  |  | NS(=O)(=O)c1cc(C2(O)NC(=O)c3ccccc32)ccc1Cl (centres undefined) [Chlorthalidone]
 |  |  | 0.00917 |  |  |  |  |  |  |  | 0.00966 | 0.398 |  |  | CCOc1nc2cccc(C(=O)O)c2n1Cc1ccc(-c2ccccc2-c2nnn[nH]2)cc1 [Candesartan]
 | 0.282 |  |  |  |  | 0.421 | 0.0396 |  |  | 1.6 | 0.68 | 9.42 | 0.0487 | 0.0523 | CC(C)(C)C(=O)C(Oc1ccc(Cl)cc1)n1ccnc1 (centres undefined) [Climbazole]
0.11 | 0.365 |  | 0.0988 | 0.729 | 0.357 |  |  | 0.9 |  |  | 0.0819 | 0.0667 |  |  | Cc1cc(C)nc(NS(=O)(=O)c2ccc(N)cc2)n1 [Sulfamethazine]
 |  |  | 0.191 |  |  | 1.27 | 0.157 | 0.293 | 0.0997 |  |  |  |  |  | CC1=CC(=O)NS(=O)(=O)O1 [Acesulfame]
11.8 | 54.6 | 5.65 | 68.6 | 29.1 |  |  | 43.8 |  | 11.7 |  |  | 17.4 | 12.1 | 0.758 | CCCCCCCCCCN [Decylamine]
0.262 | 0.415 | 0.0734 | 0.894 | 0.0394 | 0.276 | 1.52 | 0.276 | 0.895 | 0.144 | 0.368 | 0.69 | 0.085 | 0.215 | 0.172 | Cn1c(=O)c2c(ncn2C)n(C)c1=O [Caffeine]
 | 0.109 |  |  |  |  |  |  | 0.229 |  | 0.0133 | 0.1 |  | 0.107 | 0.0368 | COc1c(Cl)ccc(Cl)c1C(=O)O [Dicamba]
0.469 | 0.54 | 0.204 | 0.42 | 0.275 |  |  | 0.194 | 0.374 | 0.52 | 0.556 | 0.429 | 0.418 | 0.0324 | 0.186 | CCCCC(=O)N(Cc1ccc(-c2ccccc2-c2nnn[nH]2)cc1)[C@H](C(=O)O)C(C)C [Valsartan]
0.0829 | 0.171 | 0.0275 | 0.168 | 0.0968 | 0.114 | 0.359 | 0.149 | 0.229 | 0.336 | 0.155 | 0.0826 |  | 0.0149 | 0.0405 | NS(=O)(=O)c1cc(C(=O)O)c(NCc2ccco2)cc1Cl [Furosemide]
0.0565 | 0.461 | 0.0811 | 0.435 | 0.252 | 0.256 | 0.337 | 0.0822 | 0.373 | 0.149 | 0.178 | 0.195 | 0.0205 |  | 0.0493 | CCOC(=O)C1CC(=O)C(=C(O)C2CC2)C(=O)C1 (centres undefined) [Trinexapac-ethyl]
0.0317 | 0.223 | 0.0464 | 0.826 |  | 0.0837 |  | 0.261 | 1.66 | 0.379 | 0.24 | 0.0988 |  | 0.0914 | 0.205 | O=S(=O)(O)NC1CCCCC1 [Cyclamate]
3.99 |  | 8.59 |  |  | 6.29 |  |  |  | 18 |  |  |  | 6.23 |  | CN(Cc1cnc2nc(N)nc(N)c2n1)c1ccc(C(=O)N[C@@H](CCC(=O)O)C(=O)O)cc1 [Methotrexate]

Structure (SMILES) | first-order primary biodegradation rate constant k [1] | first-order primary biodegradation rate constant k [2] | first-order primary biodegradation rate constant k [3] | first-order primary biodegradation rate constant k [4] | first-order primary biodegradation rate constant k [5] | first-order primary biodegradation rate constant k [6] | first-order primary biodegradation rate constant k [7] | first-order primary biodegradation rate constant k [8] | first-order primary biodegradation rate constant k [9] | first-order primary biodegradation rate constant k [10] | first-order primary biodegradation rate constant k [11] | first-order primary biodegradation rate constant k [12] | first-order primary biodegradation rate constant k [13] | first-order primary biodegradation rate constant k [14] | first-order primary biodegradation rate constant k [15]
COc1cccc(C2(O)CCCCC2CN(C)C)c1 (centres undefined) [Tramadol] | 0.0149 | 0.058 | 0.00925 | 0.0025 | 0.0141 | 0.0437 | 0.00653 | 0.00694 | 0.00992 | 0.00497 | 0.0131 | 0.0152 |  |  | 
CC(C)N(C(=O)COc1nnc(C(F)(F)F)s1)c1ccc(F)cc1 [Flufenacet] | 0.0427 | 0.151 |  | 0.0323 | 0.0751 |  | 0.0399 | 0.0442 | 0.0865 |  | 0.0707 | 0.105 |  |  | 
CC[C@@H](C(N)=O)N1CCCC1=O [Levetiracetam] | 0.229 | 0.49 | 0.0839 | 0.382 | 0.188 |  | 0.958 | 0.236 | 0.262 | 0.35 |  |  |  |  | 
CCc1cccc(C)c1N(C(=O)CCl)C(C)COC (centres undefined) [Metolachlor] |  | 0.0409 |  |  |  |  | 0.0124 | 0.0203 | 0.167 |  | 0.0398 | 0.0285 |  |  | 0.0161
CC(C)N(C(=O)CCl)c1ccccc1 [Propachlor] | 0.302 | 0.812 | 0.308 | 0.575 |  | 0.985 | 1.07 | 0.218 | 0.809 | 0.429 | 0.649 | 0.552 | 0.271 | 0.212 | 0.33
